Key:
[1] = test system: rat model of cerebral infarction; details: administered before the event; cited from earlier work
[2] = test system: rats; assay: 3-acetylpyridine (3-AP) neurotoxicity model in rats; format: in vivo, rat
[3] = sumanirole 1-20 mg/kg PO, given before or after 3-AP, sacrifice 96 hours later, dose-related

Structure (SMILES): CCN(CC)C(=O)N[C@H]1C=C2c3cccc4[nH]cc(c34)C[C@H]2N(C)C1 [Lisuride]
- brain edema [1]: reduced
- survival time [1]: prolonged

Structure (SMILES): CN[C@@H]1Cc2cccc3[nH]c(=O)n(c23)C1.O=C(O)/C=C\C(=O)O [Sumanirole, (5R)-5-(methylamino)-5,6-dihydro-4H-imidazo[4,5,1-ij]quinolin-2(1H)-one (Z)-2-butenedioate (1:1)]
- neuroprotective effects of sumanirole after pretreatment with raclopride ([2]; pretreatment with raclopride): did not block
- 3-AP induced reduction in rotorod performance ([2]; sumanirole 1-20 mg/kg PO, given before or after 3-AP, dose-related): significantly attenuated
- 3-AP induced reduction in cerebellar ATP [2, 3]: significantly attenuated
- 3-AP induced reduction in cerebellar cGMP [2, 3]: significantly attenuated
- inferior olive neuronal cell loss produced by 3-AP ([2]; sumanirole 1-20 mg/kg PO, neuronal cell counts 96 hours later): significantly reduced

Structure (SMILES): CN[C@@H]1Cc2cccc3[nH]c(=S)n(c23)C1.O=C(O)CC(O)C(=O)O
- melting point: 195 to 196 °C

Structure (SMILES): CN[C@@H]1Cc2cccc3[nH]c(=S)n(c23)C1
- melting point: 210 to 213 °C

From patent publication US20040142937A1, “Use of heterocyclic amine-type compounds as neuroprotective agents” (priority 2002, published 2004)
